36 compounds from patent US11299512B2 (priority 2016, dated 2022) can be followed below.

Read-outs that look alike come from different tables or passages of the source. Some results are limits rather than exact numbers.

This experiment has as its system THP1 luciferase reporter cells. Kind of experiment: cells. Format: cell-based.
Where [1] appears, read: Homo sapiens, THP-1, 16 h, read-out: THP1-ISG-Luc with PFO, EC50.
Where [2] appears, read: Homo sapiens, THP-1, 16 h, read-out: THP-ISG-Luc without PFO, EC50.
[3] abbreviates: 16 hours, read-out: THP1-ISG-Luc with PFO, EC50.
Setting [4] is: 16 hours, read-out: THP-ISG-Luc without PFO, EC50.

By EC50 is commonly meant the concentration giving half of the maximal effect. On to `Nc1nc2c(ncn2[C@@H]2O[C@@H]3COP(=O)(O)OC4C[C@H](n5ccc6ccccc65)O[C@@H]4COP(=O)(O)OC2C3OCC(F)(F)F)c(=O)[nH]1` (stereo in doubt) [EC16], for which the EC50 runs as follows: under setting [1], more than 1000 nM; under setting [2], more than 100000 nM.

As to `C#CCOc1nc(N)nc2c1ncn2[C@@H]1O[C@@H]2COP(=O)(O)OC3C(O)[C@H](n4cnc5c(N)ncnc54)O[C@@H]3COP(=O)(O)OC1C2O` (stereo in doubt) [Example E4], the EC50 under setting [1] is less than 100 nM and the EC50 under setting [2] was less than 30000 nM.

Regarding `Nc1nc2c(ncn2[C@@H]2O[C@@H]3COP(=O)(S)OC4C(O)[C@H](n5nnc6c(N)ncnc65)O[C@@H]4COP(=O)(S)OC2C3O)c(=O)[nH]1` (stereo partly drawn) [Example E19], the EC50 reads like this: under setting [1], more than 1000 nM; under setting [2], more than 100000 nM.

Regarding `Nc1nc2c(ncn2[C@@H]2O[C@@H]3COP(=O)(S)OC4C(O)[C@H](n5ccc6c(N)ncnc65)O[C@@H]4COP(=O)(S)OC2C3O)c(=O)[nH]1` (single isomer, unassigned) [Example E18], the EC50 is less than 100 nM under setting [3] and less than 30000 nM under setting [4].

For the compound `Nc1nc2c(cnn2[C@@H]2O[C@@H]3COP(=O)(S)OC4C(O)[C@H](n5cnc6c(N)ncnc65)O[C@@H]4COP(=O)(S)OC2C3O)c(=O)[nH]1` (single isomer, unassigned) [EB7], the EC50 was more than 1000 nM under setting [1] and more than 100000 nM under setting [2].

As to `BP1(=O)OC[C@H]2O[C@@H](n3cnc4c(=O)[nH]c(N)nc43)[C@@H](OP(B)(=O)OC[C@H]3O[C@@H](n4cnc5c(N)ncnc54)[C@@H](O)C3O1)C2O` (stereo in doubt) [EA11], the EC50 was less than 100 nM under setting [1] and less than 30000 nM under setting [2].

For the compound `Nc1nc2c(ncn2[C@@H]2O[C@@H]3COP(=O)(O)OC4C(O)[C@H](n5cnc6c(N)ncnc65)O[C@@H]4COP(=O)(S)OC2C3O)c(=O)[nH]1` (single isomer, unassigned) [Example E9], the half-maximal effective concentration (EC50) was less than 100 nM under setting [3] and less than 30000 nM under setting [4].

On to `Nc1ncnc2c1ccn2[C@@H]1O[C@@H]2COP(=O)(S)OC3C(O)[C@@H](COP(=O)(O)OC2C1O)O[C@H]3n1ccc2c(N)ncnc21` (stereo partly drawn) [EC6], for which the EC50 reads like this: under setting [1], more than 1000 nM; under setting [2], more than 100000 nM.

Take `Nc1nc2c(ncn2[C@@H]2O[C@@H]3COP(=O)(S)OC4C(O)[C@H](n5cnc6c(N)ncnc65)O[C@@H]4COP(=O)(S)OC2C3O)c(=O)[nH]1` (single isomer, unassigned) [Example E13]: the EC50 runs as follows: under setting [3], 100 to 1000 nM; under setting [4], more than 100000 nM.

Consider `Nc1nc2c(ccn2[C@@H]2O[C@@H]3COP(=O)(S)OC4C(O)[C@@H](COP(=O)(O)OC3C2O)O[C@H]4n2ccc3c(N)ncnc32)c(=O)[nH]1` (single isomer, unassigned) [EC8], for which the EC50 was more than 1000 nM under setting [1] and more than 100000 nM under setting [2].

`Nc1nc2c(ncn2[C@@H]2O[C@@H]3COP(=O)(S)OC4C(O)[C@H](n5ncc6c(N)ncnc65)O[C@@H]4COP(=O)(S)OC2C3O)c(=O)[nH]1` (single isomer, unassigned) [EA5]: the EC50 is more than 1000 nM under setting [3] and more than 100000 nM under setting [4].

Consider `Nc1nc2c(ccn2[C@@H]2O[C@@H]3COP(=O)(O)OC4C(O)[C@H](n5cnc6c(NCCO)ncnc65)O[C@@H]4COP(=O)(S)OC2C3O)c(=O)[nH]1` (stereo in doubt) [EB5], for which the concentration for a half-maximal effect (EC50) runs as follows: under setting [1], 100 to 1000 nM; under setting [2], more than 100000 nM.

In the case of `Nc1nc2c(ccn2[C@@H]2O[C@@H]3COP(=O)(S)OC4C(O)[C@@H](COP(=O)(O)OC3C2O)O[C@H]4n2ccc3c(=O)[nH]c(N)nc32)c(=O)[nH]1` (single isomer, unassigned) [EC4], the EC50 was more than 1000 nM under setting [3] and more than 100000 nM under setting [4].

On to `Nc1nc2c(ncn2[C@@H]2O[C@@H]3COP(=O)(S)OC4C(O)[C@H](n5cnc6c(N)ncnc65)O[C@@H]4COP(=O)(S)OC2C3O)c(=O)[nH]1` (single isomer, unassigned) [Example E12], for which the EC50 under setting [4] was less than 30000 nM and the EC50 under setting [1] was less than 100 nM.

For the compound `C#CCOC1[C@H]2OP(=O)(O)OC[C@H]3O[C@@H](n4cnc5c(=O)[nH]c(N)nc54)[C@@H](OP(=O)(O)OC[C@H]2O[C@H]1n1cnc2c(N)ncnc21)C3O` (stereo partly drawn) [EA3], the EC50 under setting [1] is more than 1000 nM and the EC50 under setting [2] is more than 100000 nM.

On to `Nc1nc2c(ncn2[C@@H]2O[C@@H]3COP(=O)(S)OC4C(O)[C@H](n5cnc6c(N)ncnc65)O[C@@H]4COP(=O)(O)OC2C3O)c(=O)[nH]1` (single isomer, unassigned) [Example E6], for which the 50% effective concentration (EC50) under setting [1] was less than 100 nM and the EC50 under setting [2] is less than 30000 nM.

For `BP1(=O)OC[C@H]2O[C@@H](n3cnc4c(N)ncnc43)C(O)C2OP(=O)(O)OC[C@H]2O[C@@H](n3cnc4c(=O)[nH]c(N)nc43)C(O1)C2O` (single isomer, unassigned) [EA9], the EC50 reads like this: under setting [1], less than 100 nM; under setting [2], less than 30000 nM.

As to `Nc1nc2c(ccn2[C@@H]2O[C@@H]3COP(=O)(S)OC4C(O)[C@H](n5cnc6c(N)ncnc65)O[C@@H]4COP(=O)(S)OC2C3O)c(=O)[nH]1` (single isomer, unassigned) [EA8], the EC50 was 100 to 1000 nM under setting [3] and less than 30000 nM under setting [4].

In the case of `Nc1nc2c(ncn2[C@@H]2O[C@@H]3COP(=O)(O)OC4C(O)[C@H](n5cnc6c(N)ncnc65)O[C@@H]4COP(=O)(O)OC2C3CCO)c(=O)[nH]1` (stereo in doubt) [EC12], the EC50 is less than 100 nM under setting [1] and less than 30000 nM under setting [2].

Regarding `Nc1nc2c(ncn2[C@@H]2O[C@@H]3COP(=O)(O)OC4C(O)[C@H](n5cnc6c(N)ncnc65)O[C@@H]4COP(=O)(O)OC2C3O)c(=O)[nH]1` (stereo in doubt) [Example E1], the EC50 is, setting by setting: under setting [1], less than 100 nM; under setting [2], less than 30000 nM.

On to `Nc1nc2c(ncn2[C@@H]2O[C@@H]3COP(=O)(O)OC4C(O)[C@H](n5cnc6c(N)ncnc65)O[C@@H]4COP(=O)(S)OC2C3O)c(=O)[nH]1` (single isomer, unassigned) [Example E8], for which the EC50 is more than 100000 nM under setting [4] and 100 to 1000 nM under setting [1].

Regarding `Nc1nc2c(ncn2[C@@H]2O[C@@H]3COP(=O)(O)OC4C(O)[C@H](n5ccc6c(N)ncnc65)O[C@@H]4COP(=O)(O)OC2C3OCC(F)(F)F)c(=O)[nH]1` (stereo in doubt) [EC3], the EC50 runs as follows: under setting [1], 100 to 1000 nM; under setting [2], less than 30000 nM.

On to `Nc1nc2c(ccn2[C@@H]2O[C@@H]3COP(=O)(O)OC4C(O)[C@@H](COP(=O)(S)OC2C3O)O[C@H]4n2cnc3c(N)ncnc32)c(=O)[nH]1` (single isomer, unassigned) [EC14], for which the EC50 under setting [3] is more than 1000 nM and the EC50 under setting [4] is more than 100000 nM.

On to `Nc1nc2c(ccn2[C@@H]2O[C@@H]3COP(=O)(S)OC4[C@@H](COP(=O)(S)O[C@H]2C3O)O[C@@H](n2ccc3c(N)ncnc32)[C@H]4O)c(=O)[nH]1` (stereo partly drawn) [Example E23], for which the EC50 reads like this: under setting [1], less than 100 nM; under setting [2], less than 30000 nM.

For the compound `BP1(=O)OC[C@H]2O[C@@H](n3cnc4c(=O)[nH]c(N)nc43)C(OP(=O)(O)OC[C@H]3O[C@@H](n4cnc5c(N)ncnc54)C(O)C3O1)C2O` (stereo in doubt) [EA10], the EC50 runs as follows: under setting [1], less than 100 nM; under setting [2], less than 30000 nM.

With `Nc1nc2c(ncn2[C@@H]2O[C@@H]3COP(=O)(S)O[C@@H]4C(O)[C@H](n5ccc6c(N)ncnc65)O[C@@H]4COP(=O)(S)O[C@H]2C3O)c(=O)[nH]1` (single isomer, unassigned) [Example E15], the concentration giving a half-maximal response (EC50) under setting [1] was more than 1000 nM and the half-maximal effective concentration (EC50) under setting [2] was more than 100000 nM.

As to `Nc1nc2c(ncn2[C@@H]2O[C@@H]3COP(=O)(O)OC4C(O)[C@H](n5cnc6c5ncn5ccnc65)O[C@@H]4COP(=O)(O)OC2C3OCC(F)(F)F)c(=O)[nH]1` (stereo in doubt) [EC26], the EC50 is 100 to 1000 nM under setting [1] and more than 100000 nM under setting [2].

`Nc1nc2c(ccn2[C@@H]2O[C@@H]3COP(=O)(S)OC4C(O)[C@H](n5ccc6c(N)ncnc65)O[C@@H]4COP(=O)(S)OC2C3O)c(=O)[nH]1` (single isomer, unassigned) [Example E22]: the EC50 by setting is: under setting [3], 100 to 1000 nM; under setting [4], less than 30000 nM.

Take `Nc1nc2c(ccn2[C@@H]2O[C@@H]3COP(=O)(S)OC4C(O)[C@H](n5ccc6c(N)ncnc65)O[C@@H]4COP(=O)(S)OC2C3O)c(=O)[nH]1` (single isomer, unassigned) [Example E20]: the EC50 is 100 to 1000 nM under setting [1] and less than 30000 nM under setting [2].

Turning to `CCCC1C2OP(=O)(O)OC[C@H]3O[C@@H](n4cnc5c(N)ncnc54)C(O)C3OP(=O)(O)OC[C@H]1O[C@H]2n1cnc2c(=O)[nH]c(N)nc21` (stereo in doubt) [EC24], the EC50 is less than 100 nM under setting [1] and less than 30000 nM under setting [2].

Consider `Nc1nc2c(ncn2[C@@H]2O[C@@H]3COP(=O)(S)OC4C(O)[C@H](n5ccc6c(N)ncnc65)O[C@@H]4COP(=O)(S)OC2C3O)c(=O)[nH]1` (single isomer, unassigned) [Example E16], for which the EC50 runs as follows: under setting [3], less than 100 nM; under setting [4], less than 30000 nM.

For the compound `COC1C2OP(=O)(O)OC[C@H]3O[C@@H](n4cnc5c(N)ncnc54)C(O)C3OP(=O)(O)OC[C@H]1O[C@H]2n1cnc2c(=O)[nH]c(N)nc21` (stereo in doubt) [Example E3], the EC50 under setting [1] is less than 100 nM and the EC50 under setting [2] is less than 30000 nM.

Take `Nc1nc2c(ccn2[C@@H]2O[C@@H]3COP(=O)(O)OC4C(O)[C@H](n5ccc6c(N)ncnc65)O[C@@H]4COP(=O)(O)OC2C3O)c(=O)[nH]1` (stereo in doubt) [EA1]: the EC50 was 100 to 1000 nM under setting [1] and more than 100000 nM under setting [2].

As to `COC1C2OP(=O)(O)OC[C@H]3O[C@@H](n4cnc5c(=O)[nH]c(N)nc54)C(OP(=O)(O)OC[C@H]2O[C@H]1n1cnc2c(N)ncnc21)C3OCC(F)(F)F` (stereo in doubt) [EC10], the EC50 is, setting by setting: under setting [1], more than 1000 nM; under setting [2], more than 100000 nM.

`Nc1nc2c(ncn2[C@@H]2O[C@@H]3COP(=O)(O)OC4C(O)[C@H](n5ccc6c(N)ncnc65)O[C@@H]4COP(=O)(S)OC2C3OCC(F)(F)F)c(=O)[nH]1` (single isomer, unassigned) [EC2]: the EC50 was 100 to 1000 nM under setting [1] and 30000 to 100000 nM under setting [2].

`Nc1nc2c(ncn2[C@@H]2O[C@@H]3COP(=O)(O)OC4C[C@H](n5ccc6ccccc65)O[C@@H]4COP(=O)(S)OC2C3O)c(=O)[nH]1` (single isomer, unassigned) [EC17]: the EC50 reads like this: under setting [1], more than 1000 nM; under setting [2], more than 100000 nM.
